The values that follow come from PubChem BioAssay AID1259407 (Chemical Carcinogenesis Research Information System (CCRIS), 2018).

The test system of this data set is CCRIS mutagenicity, Ames/micronucleus/aberration tests. Kind of data set: CCRIS mutagenicity studies.
Where [1] appears, read: Test System: AMES SALMONELLA TYPHIMURIUM, Strain/Indicator: TA98, Metabolic Activation: NONE, Method: PREINCUBATION

Activity calls are given as the source filed them. No rule for the calls is given here.

`CC(=O)ON(C(C)=O)c1ccc(-c2ccccc2)cc1`: the mutagenic call is, setting by setting: (Test System: AMES SALMONELLA TYPHIMURIUM, Strain/Indicator: TA98(1,8-DNP6), Metabolic Activation: HUMAN, UROEPITHELIAL CELL, MICROSOMES, Method: PREINCUBATION) “active; positive”; (Test System: AMES SALMONELLA TYPHIMURIUM, Strain/Indicator: TA98(1,8-DNP6), Metabolic Activation: NONE, Method: PREINCUBATION) “active; positive”; (Test System: AMES SALMONELLA TYPHIMURIUM, Strain/Indicator: TA98, Metabolic Activation: DOG, BLADDER, MICROSOMES, Method: PREINCUBATION) “active; positive”; (Test System: AMES SALMONELLA TYPHIMURIUM, Strain/Indicator: TA98, Metabolic Activation: DOG, LIVER, MICROSOMES, Method: PREINCUBATION) “active; positive”; (Test System: AMES SALMONELLA TYPHIMURIUM, Strain/Indicator: TA98, Metabolic Activation: HUMAN, UROEPITHELIAL CELL, CYTOSOL, Method: PREINCUBATION) “inactive; negative”; (Test System: AMES SALMONELLA TYPHIMURIUM, Strain/Indicator: TA98, Metabolic Activation: HUMAN, UROEPITHELIAL CELL, MICROSOMES, Method: PREINCUBATION) “active; positive”. Further, the mutagenic call is “active; positive” (Test System: AMES SALMONELLA TYPHIMURIUM, Strain/Indicator: TA98, Metabolic Activation: HUMAN, UROEPITHELIAL CELL, S-9, Method: PREINCUBATION); “active; positive” under setting [1]; “active; positive” (Test System: AMES SALMONELLA TYPHIMURIUM, Strain/Indicator: TA98, Metabolic Activation: RAT, BLADDER, MICROSOMES, Method: PREINCUBATION); “active; positive” (Test System: AMES SALMONELLA TYPHIMURIUM, Strain/Indicator: TA98, Metabolic Activation: RAT, LIVER, MICROSOMES, Method: PREINCUBATION); “active; positive” (Test System: AMES SALMONELLA TYPHIMURIUM, Strain/Indicator: YG1024, Metabolic Activation: HUMAN, UROEPITHELIAL CELL, MICROSOMES, Method: PREINCUBATION); “active; positive” (Test System: UDS HUMAN FIBROBLASTS, Strain/Indicator: THY INCORP (NON-S-PHASE), Metabolic Activation: NONE, Method: AUTORADIOGRAPHY).

`CN(C(=O)CN(CCO)CC(=O)N(C)C(C)(C)Cc1ccccc1)C(C)(C)Cc1ccccc1`: the mutagenic call was “inactive; negative” (Test System: AMES SALMONELLA TYPHIMURIUM, Strain/Indicator: TA97, Metabolic Activation: HAMSTER, LIVER, S-9, AROCLOR 1254 (10 OR 30%), Method: PREINCUBATION); “inactive; negative” (Test System: AMES SALMONELLA TYPHIMURIUM, Strain/Indicator: TA97, Metabolic Activation: NONE, Method: PREINCUBATION); “inactive; negative” (Test System: AMES SALMONELLA TYPHIMURIUM, Strain/Indicator: TA97, Metabolic Activation: RAT, LIVER, S-9, AROCLOR 1254 (10 OR 30%), Method: PREINCUBATION); “inactive; negative” (Test System: AMES SALMONELLA TYPHIMURIUM, Strain/Indicator: TA98, Metabolic Activation: HAMSTER, LIVER, S-9, AROCLOR 1254 (10 OR 30%), Method: PREINCUBATION); “inactive; negative” under setting [1]; “inactive; negative” (Test System: AMES SALMONELLA TYPHIMURIUM, Strain/Indicator: TA98, Metabolic Activation: RAT, LIVER, S-9, AROCLOR 1254 (10 OR 30%), Method: PREINCUBATION). The mutagenic call by setting is: (Test System: AMES SALMONELLA TYPHIMURIUM, Strain/Indicator: TA100, Metabolic Activation: HAMSTER, LIVER, S-9, AROCLOR 1254 (10 OR 30%), Method: PREINCUBATION) “inactive; negative”; (Test System: AMES SALMONELLA TYPHIMURIUM, Strain/Indicator: TA100, Metabolic Activation: NONE, Method: PREINCUBATION) “inactive; negative”; (Test System: AMES SALMONELLA TYPHIMURIUM, Strain/Indicator: TA100, Metabolic Activation: RAT, LIVER, S-9, AROCLOR 1254 (10 OR 30%), Method: PREINCUBATION) “inactive; negative”; (Test System: AMES SALMONELLA TYPHIMURIUM, Strain/Indicator: TA1535, Metabolic Activation: HAMSTER, LIVER, S-9, AROCLOR 1254 (10 OR 30%), Method: PREINCUBATION) “inactive; negative”; (Test System: AMES SALMONELLA TYPHIMURIUM, Strain/Indicator: TA1535, Metabolic Activation: NONE, Method: PREINCUBATION) “inactive; negative”; (Test System: AMES SALMONELLA TYPHIMURIUM, Strain/Indicator: TA1535, Metabolic Activation: RAT, LIVER, S-9, AROCLOR 1254 (10 OR 30%), Method: PREINCUBATION) “inactive; negative”.

For `Cc1cc(S(=O)(=O)O)c([N+](=O)[O-])cc1[N+](=O)[O-]`, the mutagenic call by setting is: (End Point: In vitro chromosomal aberrations, Test System: V79 Chinese hamster fibroblasts, Metabolic Activation: None) “inactive; negative”; (Test System: Ames Salmonella typhimurium, Strain/Indicator: TA98, Metabolic Activation: None, Method: Standard plate) “inactive; negative”; (Test System: Ames Salmonella typhimurium, Strain/Indicator: TA98, Metabolic Activation: Rat, Liver, S-9, Method: Standard plate) “inactive; negative”; (Test System: Ames Salmonella typhimurium, Strain/Indicator: TA100, Metabolic Activation: None, Method: Standard plate) “inactive; negative”; (Test System: Ames Salmonella typhimurium, Strain/Indicator: TA100, Metabolic Activation: Rat, Liver, S-9, Method: Standard plate) “inactive; negative”.

Take `CCCCOc1cc(N=Nc2ccccc2)ccc1N=Nc1c(S(=O)(=O)O)cc2ccc(N)cc2c1O`: the mutagenic call is “inactive; negative” (Test System: AMES SALMONELLA TYPHIMURIUM, Strain/Indicator: TA98, Metabolic Activation: NONE, Method: STANDARD PLATE); “active; positive” (Test System: AMES SALMONELLA TYPHIMURIUM, Strain/Indicator: TA98, Metabolic Activation: RAT, LIVER, S-9, AROCLOR 1254, Method: STANDARD PLATE); “inactive; negative” (Test System: AMES SALMONELLA TYPHIMURIUM, Strain/Indicator: TA100, Metabolic Activation: NONE, Method: STANDARD PLATE); “inactive; negative” (Test System: AMES SALMONELLA TYPHIMURIUM, Strain/Indicator: TA100, Metabolic Activation: RAT, LIVER, S-9, AROCLOR 1254, Method: STANDARD PLATE); “inactive; negative” (Test System: AMES SALMONELLA TYPHIMURIUM, Strain/Indicator: TA1538, Metabolic Activation: NONE, Method: STANDARD PLATE); “active; positive” (Test System: AMES SALMONELLA TYPHIMURIUM, Strain/Indicator: TA1538, Metabolic Activation: RAT, LIVER, S-9, AROCLOR 1254, Method: STANDARD PLATE).
